Measured values as given in patent US20250320206A1, “STAT6 DEGRADERS” (Gilead Sciences, Inc., priority 2024, published 2025).

Assays:
[1] = test system: Eotaxin-3 release in human whole blood stimulated with IL-4; assay: Human Whole Blood Eotaxin-3 Assay (IL-4 stimulated eotaxin-3 release); type: cell-based; conditions: IL-4 stimulation, 48 h, values given for compounds with >80% Emax, geometric mean
Procedure, shortened: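 Lithium-heparin human whole blood preincubated 2 h at 37° C with 4-fold serially diluted compounds (0.5% DMSO), then stimulated with recombinant human IL-4 ([…]) for 48 h. Eotaxin-3 (CCL26) in supernatant quantified by MSD immunoassay.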

STAT6 = target: T1, STAT6 (Homo sapiens, UniProt P42226); assay: Stat6 Degrader Assay (HiBiT based, HeLa LgBiT clone 4.14); type: cell-based; conditions: HeLa LgBiT clone 4.14 HiBiT-STAT6, 4-24 h incubation; values given for compounds with >80% Emax; geometric mean; read-out: STAT6 degradation DC50
T1 construct: These cells express endogenous STAT6; host or cells: HeLa LgBiT clone 4.14
T1 sequence (P42226 1-847): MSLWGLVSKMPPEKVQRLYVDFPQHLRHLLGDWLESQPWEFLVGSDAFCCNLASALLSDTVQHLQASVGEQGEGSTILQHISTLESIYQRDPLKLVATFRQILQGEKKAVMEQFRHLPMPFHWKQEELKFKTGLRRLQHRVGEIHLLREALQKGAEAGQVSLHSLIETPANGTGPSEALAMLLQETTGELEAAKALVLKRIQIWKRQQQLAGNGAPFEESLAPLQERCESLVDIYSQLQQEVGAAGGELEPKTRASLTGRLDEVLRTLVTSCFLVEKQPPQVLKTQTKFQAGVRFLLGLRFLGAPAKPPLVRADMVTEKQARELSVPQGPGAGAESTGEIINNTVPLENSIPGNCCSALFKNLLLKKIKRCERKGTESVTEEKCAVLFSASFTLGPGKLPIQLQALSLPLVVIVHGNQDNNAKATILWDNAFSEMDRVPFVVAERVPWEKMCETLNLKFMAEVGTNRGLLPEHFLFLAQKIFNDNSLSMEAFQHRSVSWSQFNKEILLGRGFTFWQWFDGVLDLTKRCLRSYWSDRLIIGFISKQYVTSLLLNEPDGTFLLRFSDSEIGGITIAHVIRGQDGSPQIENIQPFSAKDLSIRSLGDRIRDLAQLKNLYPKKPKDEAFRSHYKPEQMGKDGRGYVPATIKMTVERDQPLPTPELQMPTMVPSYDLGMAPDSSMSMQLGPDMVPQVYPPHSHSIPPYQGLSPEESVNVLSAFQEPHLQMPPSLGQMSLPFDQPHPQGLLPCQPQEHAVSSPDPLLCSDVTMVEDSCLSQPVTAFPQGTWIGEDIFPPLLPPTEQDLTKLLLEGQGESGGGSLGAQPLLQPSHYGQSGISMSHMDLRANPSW
Procedure, shortened: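 HeLa LgBiT clone 4.14 cells with CRISPR HiBiT-tagged endogenous STAT6, 5000 cells/well, compound dosed then incubated 4-24 h at 37° C, 5% CO2. Nano-Glo substrate added, 0.5 h, luminescence read as non-degraded STAT6. Terfenadine 50 μM (cell kill) defines 100% degradation.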

Structure (SMILES) | EC50 [1] | DC50 (STAT6)
CN(C(=O)c1cc(F)c(C2CCN(Cc3cc4c(-n5ccc6c(c5=O)CCN6)ccnc4n3C)CC2)c(F)c1)c1ccc(C2CCN(Cc3ccc4c(c3)n(C)c(=O)n4C3CCC(=O)NC3=O)CC2)cc1 (centres unmarked) [Example 3u251, N-(4-(1-((1-(2,6-dioxopiperidin-3-yl)-3-methyl-2-oxo-2,3-dihydro-1H-benzo[d]-imidazol-5-yl)methyl)piperidin-4-yl)phenyl)-3,5-difluoro-N-methyl-4-(1-((1-methyl-4-(4-oxo-1,2,3,4-tetrahydro-5H-pyrrolo[3,2-c]pyridin-5-yl)-1H-pyrrolo[2,3-b]pyridin-2-yl)methyl)piperidin-4-yl)-benzamide] | 0.9 nM | 0.2 nM
CNc1ccn(-c2ccnc3c2cc([C@H](C)N2CC=C(c4c(C)cc(C(=O)N5CCC(CN6CCN(Cc7cc8c(cc7F)N([C@@H]7CCC(=O)NC7=O)C(=O)C8(C)C)C[C@@H]6C)CC5)cc4F)CC2)n3C)c(=O)c1 (single isomer, unassigned) [Example 3u183] | 8 nM | 5.9 nM
CNc1ccn(-c2ccnc3c2cc([C@H](C)N2CCC(c4c(C)cc(C(=O)N(C)c5ccc(C6CCN(Cc7ccc8c(c7)n(C)c(=O)n8C7CCC(=O)NC7=O)CC6)cc5)cc4F)CC2)n3C)c(=O)c1 (stereo partly drawn) [Example 3u249, N-(4-(1-((1-(2,6-dioxopiperidin-3-yl)-3-methyl-2-oxo-2,3-dihydro-1H-benzo[d]-imidazol-5-yl)methyl)piperidin-4-yl)phenyl)-3-fluoro-N,5-dimethyl-4-(1-((S)-1-(1-methyl-4-(4-(methyl-amino)-2-oxopyridin-1 (2H)-yl)-1H-pyrrolo[2,3-b]pyridin-2-yl)ethyl)piperidin-4-yl)benzamide] | 1.4 nM | 0.6 nM
Cc1cc(C(=O)N2CCC(CN3CCN(Cc4cc5c(cc4F)n([C@@H]4CCC(=O)NC4=O)c(=O)n5C)CC3)CC2)cc(F)c1C1=CCN([C@@H](C)c2cc3c(-n4ccc5c(c4=O)CCN5)ccnc3n2C)CC1 (single isomer, unassigned) [Example 3u76] | 1.3 nM | 3.2 nM
CNc1ccn(-c2ccnc3c2cc([C@H](C)N2CCC(c4ccc(C(=O)N5CCC(CN6CCN(Cc7ccc8c(c7)C(C)(C)C(=O)N8C7CCC(=O)NC7=O)C[C@@H]6C)CC5)cc4)CC2)n3C)c(=O)c1 (stereo partly drawn) [Example 3u187, 3-(3,3-dimethyl-5-(((S)-3-methyl-4-((1-(4-(1-((S)-1-(1-methyl-4-(4-(methylamino)-2-oxopyridin-1 (2H)-yl)-1H-pyrrolo[2,3-b]pyridin-2-yl)ethyl)piperidin-4-yl)benzoyl)piperidin-4-yl)-methyl)piperazin-1-yl)methyl)-2-oxoindolin-1-yl)piperidine-2,6-dione] | 4.2 nM | 3.1 nM
CNc1cc(=O)n(-c2ccnc3c2cc([C@H](C)N2CC=C(c4c(C)cc(C(=O)N5CCC(CN6CCN(Cc7ccc8c(c7)C7(CC7)C(=O)N8C7CCC(=O)NC7=O)CC6)CC5)cc4F)CC2)n3C)cc1F (stereo partly drawn) [Example 3u66, 3-(5′-((4-((1-(3-fluoro-4-(1-((S)-1-(4-(5-fluoro-4-(methylamino)-2-oxopyridin-1 (2H)-yl)-1-methyl-1H-pyrrolo[2,3-b]pyridin-2-yl)ethyl)-1,2,3,6-tetrahydropyridin-4-yl)-5-methylbenzoyl)-piperidin-4-yl)methyl)piperazin-1-yl)methyl)-2′-oxospiro[cyclopropane-1,3′-indolin]-1′-yl)piperidine-2,6-dione] | 4.3 nM | 1.6 nM
CNc1cc(=O)n(-c2ccnc3c2cc([C@H](C)N2CC=C(c4c(C)cc(C(=O)N5CCC(CN6CCN(Cc7ccc8c(c7)C7(CC7)C(=O)N8C7CCC(=O)NC7=O)C[C@@H]6C)CC5)cc4F)CC2)n3C)cc1F (stereo partly drawn) [Example 3u164, 3-(5′-(((S)-4-((1-(3-fluoro-4-(1-((S)-1-(4-(5-fluoro-4-(methylamino)-2-oxopyridin-1 (2H)-yl)-1-methyl-1H-pyrrolo[2,3-b]pyridin-2-yl)ethyl)-1,2,3,6-tetrahydropyridin-4-yl)-5-methyl-benzoyl)piperidin-4-yl)methyl)-3-methylpiperazin-1-yl)methyl)-2′-oxospiro[cyclopropane-1,3′-indolin]-1′-yl)piperidine-2,6-dione] | 2 nM | 1 nM

Next, values leading:

EC50 [1] | DC50 (STAT6) | Structure (SMILES)
5.6 nM | 3.5 nM | CNc1cc(=O)n(-c2ccnc3c2cc(CN2CC=C(c4c(F)cc(C(=O)N5CCC(CN6CCN(Cc7ccc8c(c7)n(C7CC7)c(=O)n8[C@@H]7CCC(=O)NC7=O)C[C@@H]6C)CC5)cc4F)CC2)n3C)cc1F (single isomer, unassigned) [Example 3u215]
5.8 nM | 1.4 nM | CNc1cc(=O)n(-c2ccnc3c2cc([C@H](C)N2CC=C(c4c(C)cc(C(=O)N5CCC(CN6CCN(Cc7ccc8c(c7)C7(CC7)C(=O)N8[C@H]7CCC(=O)NC7=O)CC6)CC5)cc4F)CC2)n3C)cc1F (single isomer, unassigned) [Example 3u67]
3.1 nM | 1.7 nM | CNc1cc(=O)n(-c2ccnc3c2cc([C@H](C)N2CC=C(c4c(C)cc(C(=O)N5CCC(CN6CCN(Cc7ccc8c(c7)C7(CC7)C(=O)N8[C@@H]7CCC(=O)NC7=O)C[C@@H]6C)CC5)cc4F)CC2)n3C)cc1F (single isomer, unassigned) [Example 3u100]
0.4 nM | 0.2 nM | Cc1cc(C(=O)N2CCC(CN3CCN(Cc4ccc5c(c4)n(C)c(=O)n5C4CCC(=O)NC4=O)C[C@@H]3C)CC2)cc(F)c1C1=CCN([C@@H](C)c2cc3c(-n4ccc5c(c4=O)CCN5)ccnc3n2C)CC1 (stereo partly drawn) [Example 3u137, 3-(5-(((S)-4-((1-(3-fluoro-5-methyl-4-(1-((S)-1-(1-methyl-4-(4-oxo-1,2,3,4-tetrahydro-5H-pyrrolo[3,2-c]pyridin-5-yl)-1H-pyrrolo[2,3-b]pyridin-2-yl)ethyl)-1,2,3,6-tetrahydropyridin-4-yl)benzoyl)piperidin-4-yl)methyl)-3-methylpiperazin-1-yl)methyl)-3-methyl-2-oxo-2,3-dihydro-1H-benzo[d]imidazol-1-yl)piperidine-2,6-dione]
0.3 nM | 0.2 nM | CNc1ccn(-c2ccnc3c2cc([C@H](C)N2CC=C(c4c(C)cc(C(=O)N5CCC(CN6CCN(Cc7ccc8c(c7)n(C)c(=O)n8C7CCC(=O)NC7=O)C[C@@H]6C)CC5)cc4F)CC2)n3C)c(=O)c1 (stereo partly drawn) [Example 3u32, 3-(5-(((S)-4-((1-(3-fluoro-5-methyl-4-(1-((S)-1-(1-methyl-4-(4-(methylamino)-2-oxopyridin-1 (2H)-yl)-1H-pyrrolo[2,3-b]pyridin-2-yl)ethyl)-1,2,3,6-tetrahydropyridin-4-yl)benzoyl)-piperidin-4-yl)methyl)-3-methylpiperazin-1-yl)methyl)-3-methyl-2-oxo-2,3-dihydro-1H-benzo[d]-imidazol-1-yl)piperidine-2,6-dione]
0.8 nM | 1 nM | CNc1ccn(-c2ccnc3c2cc([C@H](C)N2CC=C(c4c(C)cc(C(=O)N5CCC(CN6CCN(c7ccc8c(c7)n(C)c(=O)n8[C@H]7CCC(=O)NC7=O)CC6)CC5)cc4F)CC2)n3C)c(=O)c1 (single isomer, unassigned) [Example 3u293]
7.7 nM | 4.7 nM | CNc1ccn(-c2ccnc3c2cc([C@H](C)N2CCC(c4ccc(C(=O)N5CCC(CN6CCN(Cc7ccc8c(c7)C(C)(C)C(=O)N8[C@@H]7CCC(=O)NC7=O)C[C@@H]6C)CC5)cc4)CC2)n3C)c(=O)c1 (single isomer, unassigned) [Example 3u189]
0.5 nM | 0.3 nM | C[C@H]1CN(Cc2ccc3c(c2)n(C2CC2)c(=O)n3C2CCC(=O)NC2=O)CCN1CC1CCN(C(=O)c2cc(F)c(C3CCN([C@@H](C)c4cc5c(-n6ccc7c(c6=O)CCN7)ccnc5n4C)CC3)c(F)c2)CC1 (stereo partly drawn) [Example 3u196, 3-(3-cyclopropyl-5-(((S)-4-((1-(3,5-difluoro-4-(1-((S)-1-(1-methyl-4-(4-oxo-1,2,3,4-tetrahydro-5H-pyrrolo[3,2-c]pyridin-5-yl)-1H-pyrrolo[2,3-b]pyridin-2-yl)ethyl)piperidin-4-yl)benzoyl)-piperidin-4-yl)methyl)-3-methylpiperazin-1-yl)methyl)-2-oxo-2,3-dihydro-1H-benzo[d]imidazol-1-yl)-piperidine-2,6-dione]
5.9 nM | 3 nM | CNc1ccn(-c2ccnc3c2cc(CN2CCC(c4c(F)cc(C(=O)N5CCC(CN6CCN(Cc7ccc8c(c7)C(C)(C)C(=O)N8[C@H]7CCC(=O)NC7=O)C[C@@H]6C)CC5)cc4F)CC2)n3C)c(=O)c1 (single isomer, unassigned) [Example 3u205]
